Experimental findings from the METLIN SMRT retention time set (Domingo-Almenara et al. 2019) are described below.

The data set in a line: gradient 5% acetonitrile 3 min, to 50% in 2 min, to 85% in 15 min, held 3 min, 100 µL/min. The note with it: column: Zorbax Extend-C18 2.1 x 50 mm; eluents: water / acetonitrile, 0.1% formic acid. A digest of the protocol: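 A Zorbax Extend-C18 column (2.1 × 50 mm, 1.8 μm) run at 100 μL/min with water and acetonitrile, both containing 0.1% formic acid, separated mixtures of ~100 pure standards. The HPLC was coupled to a quadrupole time-of-flight mass spectrometer operated in positive and negative ionization mode, with dead and dwell volumes of 40 μL and 900 μL. Each retention time was taken from a computationally picked adduct peak that was then manually inspected.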
In turn, `CCc1ccc(NC(=O)C2CCN(S(=O)(=O)c3ccc4c(c3)CCCC(=O)N4)CC2)cc1` came in with an RP-LC retention time of 834 s.

`Cc1nc(-c2ccnc(N3CCOCC3)c2)no1` returned an RP-LC retention time of 614 s.

Turning to `CCN1C(SCC(=O)N2CCCC2)=NS(=O)(=O)c2ccccc21`, the RP-LC retention time came out at 684 s.

`Cn1cc(C(=O)NCCC2=CCCCC2)c2nn(-c3ccccc3)c(=O)c-2c1` had an RP-LC retention time of 991 s.

The molecule `CCc1noc(NC(C)=O)c1-c1ccc(C)c(S(=O)(=O)NCc2ccc(C)cc2)c1` showed an RP-LC retention time of 886 s.

Consider `COc1ccc(NC(=O)N2CCc3nc(-c4ccc(F)cc4)ncc3C2)cc1`, for which the RP-LC retention time was 906 s.

With `O=C(NCC1CC1)c1cn(-c2ncccc2-c2nc(-c3ccccc3)no2)cn1`, the RP-LC retention time amounted to 848 s.

With `COc1ccc(CC(=O)N2CCCC2c2cc(C(C)C)no2)cc1` (centres undefined), the RP-LC retention time was 868 s.

In turn, `O=C(Cc1nnc(-c2ccc3ncccc3c2)o1)NCc1ccc(Cl)cc1` showed an RP-LC retention time of 721 s.

For the molecule `Cc1ccc(NC(=O)C2CCCN(S(=O)(=O)c3c[nH]c(C(=O)N4CCCC4)c3)C2)cc1Cl` (centres undefined), the RP-LC retention time stood at 852 s.

`COc1ccccc1NC(=O)Cn1c(=O)cc(-c2nc(C3CC3)no2)c2ccccc21` showed an RP-LC retention time of 1280 s.

The molecule `O=S(=O)(c1ccc(Cl)c(-c2nnc(-c3ccccc3)o2)c1)N1CCSCC1` registered an RP-LC retention time of 1070 s.

For the molecule `CCCCOc1ccc(NC(=O)c2cc(=O)c3cc(Cl)ccc3o2)c2cccnc12`, the RP-LC retention time was determined as 787 s.

In turn, `Nc1nccc(Oc2ccc(NC(=O)c3c[nH]cc(-c4ccc(F)cc4)c3=O)cc2F)c1Cl` had an RP-LC retention time of 751 s.

`CCOc1ccc(S(=O)(=O)Nc2cc(-c3cn4cccc(C)c4n3)ccc2C)cc1` showed an RP-LC retention time of 722 s.

`O=C(C1CC(=O)N(c2n[nH]c3cccc(F)c23)C1)N1CCN(c2cccc(Cl)c2)CC1` (centres undefined) registered an RP-LC retention time of 837 s.

The molecule `C[C@H]1CN(C(=O)Nc2ccc(Cl)cc2)C[C@@H]1c1nc(-c2ccncc2)no1` gave an RP-LC retention time of 821 s.

Take `COc1ccc(CN2CC3(CCN(S(=O)(=O)c4cccnc4)CC3)C2=O)cc1`: the RP-LC retention time is 750 s.

For the molecule `CCN1C(=O)COc2ccc(-c3csc(NC(=O)C(C)C)n3)cc21`, the RP-LC retention time was found to be 830 s.

As for `O=C(Nc1ccc(Cl)cc1C(=O)c1ccccc1)c1ccc(N2C(=O)CCC2=O)cc1`, the RP-LC retention time turned out to be 896 s.

In turn, `Cc1cc2nc(C(=O)Nc3ccc(F)c(F)c3)cc(C)n2n1` displayed an RP-LC retention time of 986 s.

For the molecule `COc1cccc(-n2ccn3cc(-c4cccc(Cl)c4)nc3c2=O)c1`, the RP-LC retention time was 837 s.

In turn, `CCC(=O)N1CCc2cc(C(=O)N3CCN(C(=O)c4ccco4)CC3)ccc21` came in with an RP-LC retention time of 662 s.

As for `COc1ccc(OC)c(N2C=C(C#N)S(=O)(=O)c3ccc(C)cc32)c1`, the RP-LC retention time is 925 s.

`Cc1oc(-c2cccc(Cl)c2)nc1Cn1c(=O)n(C(C)C)c(=O)c2ccccc21` had an RP-LC retention time of 1360 s.

Turning to `Cc1ccc(=O)n(-c2ccccc2)c1`, the RP-LC retention time was 739 s.

On to `O=C(CSc1ccc(F)cc1)N1CCC(COCc2ccccc2)CC1`, for which the RP-LC retention time is 1030 s.

On to `O=C1Nc2cc(C(=O)N3CCCCC3)ccc2N2CCCCC12` (centres undefined), for which the RP-LC retention time is 762 s.

Turning to `Cc1ccc(S(=O)(=O)c2nc(SCC(=O)N3CCCCC3)sc2Cl)cc1`, the RP-LC retention time was 910 s.

In turn, `COc1cc(NC(=O)Cn2cccc2-c2nnc(C3CC3)o2)cc(OC)c1` returned an RP-LC retention time of 802 s.

Turning to `Cc1ccc(N2C(=O)CN(S(C)(=O)=O)CC2(C)C(=O)NCc2ccc(F)cc2)cc1C` (centres undefined), the RP-LC retention time came out at 818 s.

`O=C(CCC(=O)N1CC2CCCN2c2ccccc21)NCc1cccs1` (centres undefined): the RP-LC retention time turned out to be 865 s.

In the case of `Cc1nc(C(N)=O)nc2ccccc12`, the RP-LC retention time was 657 s.

`O=C(CSc1ccc(N2CCCC(C(=O)NC3CC3)C2)nn1)NCc1cccs1` (centres undefined) returned an RP-LC retention time of 593 s.

In turn, `Cc1cccc(NS(=O)(=O)c2cc3n(c2)CCN(C)C3=O)c1C` returned an RP-LC retention time of 694 s.

The molecule `Cc1ccccc1CC(=O)N1CCCC(COc2cccc(C(=O)NC3CC3)c2)C1` (centres undefined) had an RP-LC retention time of 861 s.

On to `CCCn1nnc2cc(-c3noc(C4CC(=O)N(c5ccccc5)C4)n3)ccc21` (centres undefined), for which the RP-LC retention time amounted to 930 s.

In the case of `COc1cc(CNC(=O)c2cccc3c2CCN3C(=O)C2CC2)cc(OC)c1`, the RP-LC retention time is 809 s.

`CC(C)NC(=O)C1CCCN(c2nc3ncn(CC(=O)Nc4cc(F)cc(F)c4)c(=O)c3s2)C1` (centres undefined) showed an RP-LC retention time of 747 s.

`COc1ccc(CN2N=C(C(=O)N3CCCC3)S(=O)(=O)c3ccccc32)cc1`: the RP-LC retention time was 823 s.

The molecule `COC[C@@H]1CN(c2cnccn2)C[C@H]1C(=O)NC(C)C` gave an RP-LC retention time of 572 s.

`CCn1nnc2c(N3CCN(CC(=O)NC4CCCC4)CC3)ncnc21` gave an RP-LC retention time of 550 s.

As to `CC(C)NC(=O)N1CCCC(c2nc(C(C)C)no2)CCNC(=O)CC1` (centres undefined), the RP-LC retention time was found to be 658 s.

`CCNC(=O)C1CCCN(c2nc3ncn(CC(=O)NCc4ccc(F)cc4)c(=O)c3s2)C1` (centres undefined): the RP-LC retention time amounted to 648 s.

Take `CCC(C(=O)Nc1cc(-c2cn3cccnc3n2)ccc1C)c1ccccc1` (centres undefined): the RP-LC retention time turned out to be 680 s.

In the case of `O=C(CN1C(=O)C(C(=O)N2CCCC2)Sc2ccccc21)NC1CCCCCCC1` (centres undefined), the RP-LC retention time turned out to be 1060 s.

Regarding `Cc1nnc(NC(=O)c2ccc(S(=O)(=O)NCc3ccccn3)o2)s1`, the RP-LC retention time came out at 581 s.

`COc1ccc(NC(=O)c2c(OC)cc(=O)n3c2CCCC3)cc1OC`: the RP-LC retention time was 628 s.

`COc1ccc(C2(C(=O)N3CCN(C(=O)c4cc(-c5ccncc5)n[nH]4)CC3)CC2)cc1` displayed an RP-LC retention time of 610 s.

With `Cc1ccc(NC(=O)CN2C(=O)CCS(=O)(=O)c3ccccc32)cc1`, the RP-LC retention time came to 761 s.

`COc1ccc2c(c1)C1(CCN(C(=O)C(C)(C)C)C1)C(=O)N2` (centres undefined): the RP-LC retention time came out at 703 s.

Molecule `Cc1c(C(=O)NC2CC2)cnn1-c1ccc(SCc2ccccc2)nn1` yielded an RP-LC retention time of 866 s.

Take `O=c1n(Cc2c(F)cccc2Cl)nc2ccc(S(=O)(=O)N3CCCC3)cn12`: the RP-LC retention time is 885 s.

`Cc1noc(-c2ccnc(-n3ncc(C(=O)NC4CCCCCC4)c3C)c2)n1`: the RP-LC retention time is 968 s.

The molecule `CC(C)(C)c1nnc(NC(=O)C2CCN(C(=O)c3cccc(F)c3)CC2)s1` registered an RP-LC retention time of 765 s.

Turning to `Cn1ncc2c(N3CCSCC3)nc(C(=O)NCCc3cccnc3)nc21`, the RP-LC retention time was 575 s.

`CCOC(=O)N1CCN(CC(O)COc2c(F)cc(Br)cc2F)CC1` (centres undefined) had an RP-LC retention time of 591 s.

The molecule `COCc1nncn1C1CCN(S(=O)(=O)c2cc(F)ccc2OC)CC1` came in with an RP-LC retention time of 679 s.

`COc1cc(=O)n2c(c1C(=O)Nc1cccc(Br)c1)CCCC2` showed an RP-LC retention time of 760 s.

The molecule `O=C(Cc1c(Sc2ccccc2)[nH]c2ccccc12)NCCN1CCOCC1` showed an RP-LC retention time of 654 s.

Regarding `COc1cc(OC)cc(C(=O)N(C)CCc2noc(C(=O)NCc3ccccc3)n2)c1`, the RP-LC retention time stood at 809 s.

Regarding `COc1ccc(OC)c(S(=O)(=O)N2CCc3nc(-c4ccc(Cl)cc4)ncc3C2)c1`, the RP-LC retention time stood at 1160 s.

In turn, `Cc1cccc(Cn2c(=O)n(CCNC(=O)CC(C)(C)C)c3ncccc32)c1` showed an RP-LC retention time of 864 s.

`COc1ccc(OC)c(-c2cn3ccn(-c4ccc(Cl)cc4)c(=O)c3n2)c1` showed an RP-LC retention time of 887 s.

Take `COCC(=O)N1CCOc2ccc(N(C)C)cc2C1`: the RP-LC retention time is 550 s.

Turning to `Cc1ccc(C)c(N2CCN(c3ccc(-c4nc(-c5cccc(F)c5)no4)cn3)CC2)c1`, the RP-LC retention time turned out to be 602 s.

On to `COc1ccc(-c2nc(NCCN3CCCCC3C)c3ccccc3n2)cc1` (centres undefined), for which the RP-LC retention time was 598 s.

Turning to `Cc1nccn1CCNC(=O)C(=O)Nc1ccc2c(c1)N(C(=O)C(C)C)CCC2`, the RP-LC retention time is 571 s.

Consider `CCOC(=O)C(NC(=O)Nc1c(-c2cccc(C)c2)nc2ccccn12)C(C)C` (centres undefined), for which the RP-LC retention time came out at 690 s.

Molecule `CN(C)[C@@H]1CN(Cc2ccc(Br)o2)CC[C@@H]1CNC(=O)C1CC1` yielded an RP-LC retention time of 574 s.

For `N#Cc1cccc(-c2cn3c(n2)N(C(=O)c2ccncc2)CCC3)c1`, the RP-LC retention time was 611 s.

The molecule `CCCc1nc(-c2c(C)cc(C)nc2NC(=O)c2ccccc2C(F)(F)F)no1` returned an RP-LC retention time of 951 s.

For the molecule `COCCNc1c(-c2cccc(F)c2)nc2sc(C(=O)NC(C)C)c(C)n12`, the RP-LC retention time came out at 835 s.

In the case of `COc1ccc(S(=O)(=O)N2CCN(c3cc(C)nc(NC4CCCCC4)n3)CC2)cc1C`, the RP-LC retention time was found to be 848 s.

Molecule `O=C(Nc1ccc2nc(N3CCN(C4CCCCC4)CC3)cc(C(=O)O)c2c1)c1ccccc1Cl` showed an RP-LC retention time of 627 s.

Turning to `CC1(C(=O)NCc2ccccc2)Cn2cnc(C(=O)NCc3ccccc3F)c2C(=O)N1C1CC1` (centres undefined), the RP-LC retention time is 783 s.

`COc1ccc(CN2CCC(NC(=O)C3(c4ccccc4)CC3)C2)cn1` (centres undefined) returned an RP-LC retention time of 639 s.

Take `COc1cc(-c2ccccc2)nc2ccc(NS(=O)(=O)c3ccc(NC(C)=O)cc3)cc12`: the RP-LC retention time was found to be 653 s.

The molecule `CCOc1cccc(-c2noc(Cn3c(=O)n(-c4ccc(C)cc4)c(=O)c4sccc43)n2)c1` showed an RP-LC retention time of 1090 s.
